Measurements as given in ChEMBL document CHEMBL1133368, “Preparation of 5-(2,6-dideoxy-2-fluoro-alpha-L-talopyranosyloxy)-6-hydroxynap htho[2,3- f]quinoline-7,12-dione (FT-Alz), a new-type, potentially antitumor substance with various biological activities” (Bioorg Med Chem Lett, 2000).

Experiments:
[1] = test system: Melanoma cell line; experiment: Growth inhibitory concentration of compound was measured against human melanoma cell line (HMV-1); type: functional, cell-based
[2] = test system: K562; experiment: Growth inhibitory concentration of compound was measured against human leukemia cell line (K562); type: functional, cell-based
[3] = test system: KB; experiment: Growth inhibitory concentration of compound was measured against human nasopharyngeal carcinoma cell line (KB); type: functional, cell-based
[4] = test system: L1210; experiment: Growth inhibitory concentration of compound was measured against murine leukemia cell line (L1210); type: functional, cell-based; details: Mus musculus
[5] = test system: MKN-1; experiment: Growth inhibitory concentration of compound was measured against human gastric adenocarcinoma cell line (MKN-1); type: functional, cell-based
[6] = test system: P388; experiment: Growth inhibitory concentration of compound was measured against DOX resistant P388 cell line (P388 /DOX); type: functional, cell-based; details: Mus musculus
[7] = test system: P388; experiment: Growth inhibitory concentration of compound was measured against murine leukemia cell line (P388); type: functional, cell-based; details: Mus musculus
[8] = test system: T-24; experiment: Growth inhibitory concentration of compound was measured against human bladder carcinoma cell line (T24); type: functional, cell-based
[9] = test system: PC-14; experiment: Growth inhibitory concentration of compound was measured against human lung carcinoma cell line (PC-14); type: functional, cell-based
[10] = target: DNA topoisomerase II (Homo sapiens, UniProt P11388+Q02880); experiment: The compound was tested for its inhibitory activity against topoisomerase II; type: protein assay

SMILES	IC50 [1] [µM]	IC50 [2] [µM]	IC50 [3] [µM]	IC50 [4] [µM]	IC50 [5] [µM]	IC50 [6] [µM]	IC50 [7] [µM]	IC50 [8] [µM]	IC50 [9] [µM]	IC50 [10] [µM]
CC1OC(Oc2c3c(c4cccnc4c2OC2OC(C)C(O)C(O)C2F)C(=O)c2ccccc2C3=O)C(F)C(O)C1O (configuration not stated)	7.5	5.8	> 8.5	> 8.5	> 8.5	> 8.5	> 8.5	> 8.5	> 8.5	–
CC1OC(Oc2c(O)c3c(c4cccnc24)C(=O)c2ccccc2C3=O)C(F)C(O)C1O (configuration not stated)	0.59	0.71	0.27	0.32	0.73	0.82	0.77	0.36	0.71	5
O=C1c2ccccc2C(=O)c2c1c(O)c(O)c1ncccc21	4.1	7.2	3	7.2	14	3.3	6.9	14	> 17	–
COc1cccc2c1C(=O)c1c(O)c3c(c(O)c1C2=O)C[C@@](O)(C(=O)CO)C[C@@H]3O[C@H]1C[C@H](N)[C@H](O)[C@H](C)O1 [DOXORUBICIN]	0.28	0.12	0.22	0.05	0.64	> 0.9	0.02	0.64	1.9	–
